According to US11987557B2, “Phenalene-1-one-containing photosensitizer composition, phenalene-1-one compound and the use thereof” ([…], priority 2017, dated 2024):
“And” between values parts separate entries of the source, which are not always exact repeats. Equal entries are not always repeated.

Experiments:
[1] = system: Staphylococcus aureus ATCC 25923; test: Photodynamic inactivation of S. aureus on coated sample supports, LED 405 nm (Example 3); type: cell-based
Procedure: The photosensitizer was dissolved in the respective paint system and applied to various square sample supports (width: 4 cm, length: 4 cm, thickness: 3 mm) formed from PVC or PMMA and then dried. After drying the coating, a specific quantity of bacteria from the species Staphylococcus aureus ATCC 25923 was applied to the surface.
In this regard, firstly, an overnight (ON) culture of S. aureus in 5 mL of Mueller Hinton broth (Carl Roth GmbH+Co. KG, Karlsruhe, DE) was inoculated with a single colony from an agar plate and incubated at 37° C. and 180 rpm on a shaker for 18-20 hours.
On the day of the test, in each case 1 mL of ON culture was centrifuged (Hettich Universal 320 R centrifuge (Andreas Hettich GmbH & Co. KG, Tuttlingen, DE); swing-out rotor 1494; 10 Min, 3000 rpm, RT). The supernatant was discarded and the pellet was re-suspended in 1 mL of Milli-Q water, which is commercially available from Merck (KGaA, Darmstadt, DE) (designation “Milli-Q Integral Ultra-pure Water (Type 1)”).
After determining the optical density at 600 nm (“Specord 50 plus”, spectrometer, Analytik Jena), the re-suspended bacteria were diluted with Milli-Q-water to a cell count of 10^5 bacteria/mL. From the dilution, in each case 100 μL was dripped onto the sample support using a pipette (droplet size approximately 1 cm^2).
The sample support was then dried in air under a clean bench in the dark for approximately 2 hours, until water could no longer be seen on the surface.
The respective sample supports were irradiated with monochrome light at a wavelength of 405 nm with the aid of a LED module (test area 5×5 cm homogeneously illuminated; high power LEDs) or with room lighting (Osram Lumilux Cool White, colour temperature 4000 K) at the intensities and for the irradiation periods given below. Directly after irradiation, the bacteria were wiped from the surface of the respective sample support with a sterile cloth and re-suspended in 1 mL of Mueller-Hinton broth.
Next, the sample was serially diluted (1:10 dilution stages: 180+20 μL; to dilution stage 10^5).
For each dilution stage (100 to 10^−5), 3× respectively 20 μL of broth was dripped onto a Mueller-Hinton agar plate (Carl Roth GmbH+Co. KG) using a pipette, and spread. The agar plates were then incubated at 37° C. ON.
On the following day, the colonies from all of the dilution stages which could be counted of an experiment were counted and the CFU/mL was calculated.
Next, from the value for the CFU/mL, the log10 eradication rate was calculated. The reference point in each experiment was the reference control (=100% count of bacteria employed).
A test was composed of the following: • coated sample support: without photosensitizer, not irradiated (“reference control”) • coated sample support: with photosensitizer, not irradiated (“dark control”) • coated sample support: without photosensitizer and irradiated (“light control”) • coated sample support: with photosensitizer and irradiated (“sample”)
• Coated material: PMMA, 3 mm thickness, 4×4 cm • Drying time approximately 1 hour • Drying temperature 15-30° C. • Application with a spray gun • Concentration of photosensitizer used: […] (61.55 mg/L) Irradiation Conditions:
• Coated material: PVC, 3 mm thickness, 4×4 cm • Drying time approximately 2 hours • Drying temperature 15-30° C. • Relative humidity for the drying time 30-70% • Application with a spray gun • Concentration of photosensitizer used: […] (61.55 mg/L) Irradiation Conditions: […]

S. aureus [2] = test: Phototoxic effect of coated surface in office lighting (Example 4); type: cell-based, Staphylococcus aureus; conditions: 2-C paint from Example 2.1, storage 24 h, illumination period 12 h
Procedure: In a subsequent test, the 2-C paint system was irradiated with room lighting. In this regard, the photoactive surfaces produced in Example 2.1 with the photosensitizers SAPN-19c and SAPN-19 were additionally stored exposed in areas with normal office lighting (standard fluorescent lights, Osram Cool White, 840) and the phototoxic action on S. aureus with the same pathogen counts as in Example 3 was analysed after specific periods. In this regard, the photoactive layers were distanced from the light source by approximately 40 cm. It was shown that for the photosensitizer SAPN-19c, after storage for 24 h under standard office lighting conditions with an illumination period of 12 h, that ail pathogens on the surface had been completely eradicated (approximately 5.5 log10 units, corresponding to >99.999% reduction).

S. aureus [3] = test: Long-term test of photoactive stability after pre-irradiation (Example 5); type: cell-based, Staphylococcus aureus
Procedure: In order to test the stability of the lacks produced, a long term test was carried out.
The test surfaces were pre-irradiated for different time periods (5, 25, 50, 75 h) at an output of 5 mW cm^−2 in order to establish whether the respective photosensitizer in PUR was affected in a manner such that the phototoxic activity of the surface was reduced:
Following the pre-irradiation, the surfaces as described above were contaminated with S. aureus then irradiated for 2 h (corresponds to 5 mW cm^−2) and the phototoxic efficiency was measured.

| SMILES | mean eradication of S. aureus ([1]; 1-C polyurethane paint, water-based, on PVC, LED 405 nm, 10 mW/cm^2, 10 minutes (6 J/cm^2), three independent tests) | eradication of S. aureus ([1]; 2-C polyurethane paint on PMMA, LED 405 nm, 0.7 mW/cm^2, after 20 minutes, two independent tests) | log10 reduction of S. aureus ([1]; 2-C polyurethane paint on PMMA, photosensitizer 200 μm (61.55 mg/L), LED 405 nm, 10 mW/cm^2, 2 minutes (1.2 J/cm^2), mean of 3 independent experiments) | extermination of S. aureus ([1]; 2-C polyurethane paint on PMMA, photosensitizer 200 μm (61.55 mg/L), LED 405 nm, 20 mW/cm^2, 2 minutes (2.4 J/cm^2)) | reduction of the bacteria involved ([1]; coating at 6 J/cm^2, equivalent of 3 log10 units) | eradication of pathogens on the surface (S. aureus [2]; standard office lighting (Osram Cool White, 840), approx. 40 cm) | reduction of pathogens on the surface (S. aureus [2]; standard office lighting) | phototoxic efficiency after pre-irradiation (S. aureus [3]; PUR surface pre-irradiated 5, 25, 50, 75 h at 5 mW cm^−2, then contaminated with S. aureus and irradiated 2 h) | state of the test surfaces after one month (S. aureus [3]; porphyrin-doped surfaces, after one month) |
| --- | --- | --- | --- | --- | --- | --- | --- | --- | --- |
| CC(C)(O)c1cc[n+](CC2=Cc3cccc4cccc(c34)C2=O)cc1 [SAPN-19c] | 3.0 log10 units and 3 log10 units | 1.9 log10 units | 1.8 log10 | 2.7 log10 units | 99.9% | approximately 5.5 log10 units | > 99.999% |  |  |
| OCCOCCOc1ccc(-c2c3nc(c(-c4ccccc4)c4ccc([nH]4)c(-c4ccccc4)c4nc(c(-c5ccccc5)c5ccc2[nH]5)C=C4)C=C3)cc1 [TPP sensitizer WBII/2] |  |  |  |  |  |  |  | noticeable reduction in the phototoxic efficiency | discoloured significantly and they lost phototoxic activity |
